US9550796B2, “Pyrrolopyrrolone derivatives and their use as BET inhibitors” (NOVARTIS AG, priority 2013, dated 2017)

How the values were obtained:
MV-4-11 = assay: Cell growth inhibition assay (CellTiter-Glo), MV-4-11; assay type: cell-based, human; conditions: MV-4-11 cells, 4 days; for GI50: Homo sapiens, MV4-11, 96 h, half-maximal growth inhibition; for MV-4-11 TGI: total growth inhibition
Procedure, shortened: (§1)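 4-day CTG ATP readout, 37 °C/5% CO2; top conc 10 μM, 3-fold dilutions; 0.1% DMSO vehicle. Luminescence background-subtracted, normalised to day 0 plate; vehicle = 100%, medium = −100%. IC50/TGI by 4-parameter fit.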

THP-1 = assay: Cell growth inhibition assay (CellTiter-Glo), THP-1; assay type: cell-based, human; conditions: THP-1 cells, 4 days; for GI50: Homo sapiens, 96 h, half-maximal growth inhibition; for THP-1 TGI: total growth inhibition
Procedure, shortened: as §1

K-562 = assay: Cell growth inhibition assay (CellTiter-Glo), K-562; assay type: cell-based, human; conditions: K-562 cells, 4 days; for GI50: Homo sapiens, K562, 96 h, half-maximal growth inhibition; for K-562 TGI: total growth inhibition
Procedure, shortened: as §1

BRD2 = BRD2 (Homo sapiens (Human), UniProt P25440); assay: TR-FRET in-vitro binding assay for BRD2; conditions: 45 nM His-Brd2(60-472), acetyl-histone H4 (AcK 5, 8, 12, 16) peptide
Experimental: TR-FRET In-Vitro Binding Assays for BRD2, BRD3, and BRD4: All assays were performed in 384-well microtiter plates. […] Liquid handling and incubation steps were done on an Innovadyne Nanodrop Express equipped with a robotic arm (Thermo CatX, Perkin Elmer/Caliper Twister II) and an incubator (Liconic STX40, Thermo Cytomat 2C450). The assay plates were prepared by addition of 50 nl per well of compound solution in 90% DMSO HummingBird nanodispenser (Zinsser Analytic). […] Reactions were incubated at 30° C. for 35 minutes. […] After 35 minutes incubation at 30° C., plates were measured in a Perkin Elmer EnVision multilabel reader. […] The stock solutions were stored at […] if not used immediately. For the test procedure the vials were defrosted and identified by a scanner whereby a working sheet was generated that guided the subsequent working steps. Compound dilutions were made in 96 well plates. This format enabled the assay of maximally […] at 8 concentrations (single points) including 4 reference compounds, if desired (known BET inhibitors from the prior art, for this and other assays of the type disclosed herein). The dilution protocol included the production of “pre-dilution plates”, “master plates” and “assay plates”. Polypropylene 96-well plates were used as pre-dilution plates. […] All dilution steps were done on a HamiltonSTAR robot. […] Identical “assay plates” were then prepared by pipetting 50 nL each of compound dilutions of the “master plates” into 384-well “assay plates” by means of a HummingBird 384-channel dispenser. These plates were used directly for the assay which was performed in a total volume of 13.55 μL.

BRD3 = BRD3 (Homo sapiens (Human), UniProt Q15059); assay: TR-FRET in-vitro binding assay for BRD3; conditions: 45 nM His-Brd3(20-477), acetyl-histone H4 (AcK 5, 8, 12, 16) peptide
Procedure, shortened: (§2)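 Eight-point compound dilutions, delivered in 90% DMSO, were tested in a 13.55 μL final reaction. Reactions ran 35 minutes at 30° C before TR-FRET measurement.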

BRD4 = BRD4 (Homo sapiens (Human), UniProt O60885); assay: TR-FRET in-vitro binding assay for BRD4; conditions: 45 nM His-Brd4(44-477), acetyl-histone H4 (AcK 5, 8, 12, 16) peptide
Procedure, shortened: as §2

CREBBP = CREBBP (Homo sapiens (Human), UniProt Q92793); assay: AlphaScreen in-vitro binding assay for CREBBP; conditions: 324 nM His-CREBBP (1081-1197), acetyl-histone H4 (AcK 5, 8, 12) peptide
Procedure, shortened: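 IC50 values were derived by non-linear regression of percent inhibition across 8 compound concentrations. Protein was His-tagged CREBBP bromodomain (1081-1197), peptide acetyl-histone H4 (AcK 5, 8, 12), in HEPES pH 7.5 buffer. Read-out was AlphaScreen with Ni-chelate acceptor and streptavidin donor beads, 35 min at 30° C then 60 min at RT.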

Sequence of BRD3 (Q15059 20-477): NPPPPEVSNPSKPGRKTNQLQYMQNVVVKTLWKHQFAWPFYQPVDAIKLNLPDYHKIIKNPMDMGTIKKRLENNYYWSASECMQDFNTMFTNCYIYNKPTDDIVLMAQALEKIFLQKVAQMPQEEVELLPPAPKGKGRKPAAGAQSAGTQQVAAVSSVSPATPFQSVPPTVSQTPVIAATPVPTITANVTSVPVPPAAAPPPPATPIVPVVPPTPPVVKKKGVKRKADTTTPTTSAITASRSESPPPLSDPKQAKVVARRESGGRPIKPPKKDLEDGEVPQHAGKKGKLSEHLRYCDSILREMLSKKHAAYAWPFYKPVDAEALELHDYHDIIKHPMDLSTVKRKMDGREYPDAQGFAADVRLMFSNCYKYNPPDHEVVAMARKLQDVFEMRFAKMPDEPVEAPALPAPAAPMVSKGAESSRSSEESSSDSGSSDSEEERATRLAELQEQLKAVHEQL
Sequence of BRD2 (P25440 60-472): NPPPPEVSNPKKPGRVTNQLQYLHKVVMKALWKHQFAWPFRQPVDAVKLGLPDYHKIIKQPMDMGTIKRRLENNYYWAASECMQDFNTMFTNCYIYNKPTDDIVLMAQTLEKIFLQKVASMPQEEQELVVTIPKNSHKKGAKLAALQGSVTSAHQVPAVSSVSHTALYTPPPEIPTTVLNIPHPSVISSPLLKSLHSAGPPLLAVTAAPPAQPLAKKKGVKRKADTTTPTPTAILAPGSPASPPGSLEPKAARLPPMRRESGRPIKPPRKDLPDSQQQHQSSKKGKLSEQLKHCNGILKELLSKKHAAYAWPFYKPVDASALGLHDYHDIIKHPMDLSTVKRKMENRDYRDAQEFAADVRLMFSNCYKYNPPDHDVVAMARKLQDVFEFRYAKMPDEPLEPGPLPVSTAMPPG
Sequence of CREBBP (Q92793 1081-1197): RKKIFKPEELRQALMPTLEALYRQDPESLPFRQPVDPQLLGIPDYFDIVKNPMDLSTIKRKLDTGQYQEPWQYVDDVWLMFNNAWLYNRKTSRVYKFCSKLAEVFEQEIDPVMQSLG

GI50 (MV-4-11) | GI50 (THP-1) | GI50 (K-562) | IC50 (BRD2) | IC50 (BRD3) | IC50 (BRD4) | IC50 (CREBBP) | Structure (SMILES) | MV-4-11 TGI (MV-4-11) | THP-1 TGI (THP-1) | K-562 TGI (K-562)
22.5 nM | 34.4 nM | 108 nM | 37 nM | 21 nM | 17 nM |  | COc1ncccc1-c1cc2c([nH]1)C(c1ccc(Cl)cc1)N(c1cc(C)c3nnc(C)n3c1)C2=O (centres unmarked) [Example 27, 6-(4-chlorophenyl)-5-(3,8-dimethyl-[1,2,4]triazolo[4,3-a]pyridin-6-yl)-2-(2-methoxypyridin-3-yl)-5,6-dihydropyrrolo[3,4-b]pyrrol-4(1H)-one] | 0.0377 µM | 0.088 µM | >10 µM
150 nM | 711 nM | 1680 nM | 91 nM | 76 nM | 110 nM |  | Cc1cc(N2C(=O)c3cc(-c4cccc(=O)n4C)n(C)c3C2c2ccc(Cl)cc2)cn(C)c1=O (centres unmarked) [Example 48, 6-(4-chlorophenyl)-5-(1,5-dimethyl-6-oxo-1,6-dihydropyridin-3-yl)-1-methyl-2-(1-methyl-6-oxo-1,6-dihydropyridin-2-yl)-5,6-dihydropyrrolo[3,4-b]pyrrol-4(1H)-one] | 0.27 µM | 1.16 µM | >10 µM
92.3 nM | 169 nM | 386 nM | 76 nM | 75 nM | 83 nM |  | Cc1cc(N2C(=O)c3cc(-c4ccnc(C(F)(F)F)n4)n(C)c3C2c2ccc(Cl)cc2)cn(C)c1=O (centres unmarked) [Example 49, 6-(4-chlorophenyl)-5-(1,5-dimethyl-6-oxo-1,6-dihydropyridin-3-yl)-1-methyl-2-(2-(trifluoromethyl)pyrimidin-4-yl)-5,6-dihydropyrrolo[3,4-b]pyrrol-4(1H)-one] | 0.134 µM | 0.301 µM | >10 µM
88.1 nM | 104 nM | 449 nM | 32 nM | 38 nM | 33 nM |  | Cc1cc(N2C(=O)c3cc(-c4cccc(N(C)C)n4)n(C)c3C2c2ccc(Cl)cc2)cn(C)c1=O (centres unmarked) [Example 51, 6-(4-chlorophenyl)-5-(1,5-dimethyl-6-oxo-1,6-dihydropyridin-3-yl)-2-(6-(dimethylamino)pyridin-2-yl)-1-methyl-5,6-dihydropyrrolo[3,4-b]pyrrol-4(1H)-one] | 0.116 µM | 0.165 µM | >10 µM
 |  |  | 41 nM | 39 nM | 40 nM |  | COc1ncc(-c2cc3c(n2C)C(c2ccc(Cl)cc2)N(c2cc(C)c(=O)n(C)c2)C3=O)c(OC)n1 (centres unmarked) [Example 53, 6-(4-chlorophenyl)-2-(2,4-dimethoxypyrimidin-5-yl)-5-(1,5-dimethyl-6-oxo-1,6-dihydropyridin-3-yl)-1-methyl-5,6-dihydropyrrolo[3,4-b]pyrrol-4(1H)-one] |  |  | 
37.6 nM | 76 nM | 200 nM | 50 nM | 54 nM | 59 nM |  | Cc1cc(N2C(=O)c3cc(-c4cnc(N(C)C)nc4)n(C)c3C2c2ccc(Cl)cc2)cn(C)c1=O (centres unmarked) [Example 57, 6-(4-chlorophenyl)-5-(1,5-dimethyl-6-oxo-1,6-dihydropyridin-3-yl)-2-(2-(dimethylamino)pyrimidin-5-yl)-1-methyl-5,6-dihydropyrrolo[3,4-b]pyrrol-4(1H)-one] | 0.0598 µM | 0.126 µM | >10 µM
18.1 nM | 33.2 nM | 133 nM | 40 nM | 34 nM | 42 nM |  | COc1ccc(-c2cc3c(n2C)C(c2ccc(Cl)cc2)N(c2cc(C)c(=O)n(C)c2)C3=O)cn1 (centres unmarked) [Example 58, 6-(4-chlorophenyl)-5-(1,5-dimethyl-6-oxo-1,6-dihydropyridin-3-yl)-2-(6-methoxypyridin-3-yl)-1-methyl-5,6-dihydropyrrolo[3,4-b]pyrrol-4(1H)-one] | 0.0338 µM | 0.0704 µM | >10 µM
80.4 nM | 96.2 nM | 270 nM | 120 nM | 200 nM | 220 nM |  | Cc1cc(N2C(=O)c3cc(-c4cccn(C)c4=O)n(C4CC4)c3C2c2ccc(Cl)cc2)cn(C)c1=O (centres unmarked) [Example 65, 6-(4-chlorophenyl)-1-cyclopropyl-5-(1,5-dimethyl-6-oxo-1,6-dihydropyridin-3-yl)-2-(1-methyl-2-oxo-1,2-dihydropyridin-3-yl)-5,6-dihydropyrrolo[3,4-b]pyrrol-4(1H)-one] | 0.1285 µM | 0.1675 µM | >10 µM
 |  |  | 740 nM | 560 nM | 695 nM |  | COc1cccc(C2c3c(ccn3C)C(=O)N2c2cc(C)c(=O)n(C)c2)c1 (centres unmarked) [Example 85, 5-(1,5-dimethyl-6-oxo-1,6-dihydropyridin-3-yl)-6-(3-methoxyphenyl)-1-methyl-5,6-dihydropyrrolo[3,4-b]pyrrol-4(1H)-one] |  |  | 
371 nM | 466 nM | 1720 nM | 830 nM | 667 nM |  |  | COc1cccc(C2c3c(ccn3C)C(=O)N2c2cc(Cl)c(=O)n(C)c2)c1 (centres unmarked) [Example 91, 5-(5-chloro-1-methyl-6-oxo-1,6-dihydropyridin-3-yl)-6-(3-methoxyphenyl)-1-methyl-5,6-dihydropyrrolo[3,4-b]pyrrol-4(1H)-one] | 0.6415 µM | 1.0025 µM | >10 µM
655 nM | 680 nM | 2870 nM | 850 nM | 690 nM | 890 nM |  | COc1ccc(C2c3c(ccn3C)C(=O)N2c2cc(Cl)c(=O)n(C)c2)cc1 (centres unmarked) [Example 92, 5-(5-chloro-1-methyl-6-oxo-1,6-dihydropyridin-3-yl)-6-(4-methoxyphenyl)-1-methyl-5,6-dihydropyrrolo[3,4-b]pyrrol-4(1H)-one] | 1.495 µM | 2.405 µM | >10 µM
0.522 nM | 1.16 nM | 5.68 nM | 13 nM | 12 nM | 12 nM |  | Cc1cc(N2C(=O)c3c(C4CC4)cn(C4CN(C)C4)c3C2c2ccc(Cl)cc2)nc2c1nnn2C (centres unmarked) [Example 106, 6-(4-chlorophenyl)-3-cyclopropyl-5-(3,7-dimethyl-3H-[1,2,3]triazolo[4,5-b]pyridin-5-yl)-1-(1-methylazetidin-3-yl)-5,6-dihydropyrrolo[3,4-b]pyrrol-4(1H)-one] | 0.00223 µM | 0.003335 µM | >10 µM
31.5 nM | 34.2 nM | 181 nM |  | 29 nM | 22 nM | > 37 µM | Cc1cc(N2C(=O)c3c(NC(=O)CN(C)C)cn(C)c3C2c2ccc(Cl)cc2)cn2c(C(F)F)nnc12 (centres unmarked) [Example 134, N-(6-(4-chlorophenyl)-5-(3-(difluoromethyl)-8-methyl-[1,2,4]triazolo[4,3-a]pyridin-6-yl)-1-methyl-4-oxo-1,4,5,6-tetrahydropyrrolo[3,4-b]pyrrol-3-yl)-2-(dimethylamino)acetamide] | 0.065 µM | 0.0824 µM | >10 µM
